The values that follow come from patent publication US20120191039A1, “CARRIER LINKED PRAMIPEXOLE PRODRUGS” (ASCENDIS PHARMA A/S, priority 2009, published 2012).

Each structure is given as a SMILES string. Where two headings read alike, the source gives them in different places.

For data set [1] the following is noted: cited from earlier work.
Data set [2] in a line: Release kinetics in vitro: hydrolysis in buffer at pH 7.4 and 37° C. Format: physicochemical. To be noted: sodium phosphate buffer; half time of release, 60 mM sodium phosphate, 3 mM EDTA, 0.01% Tween20, pH 7.4, 37° C.; read-out: t1/2 buffer A (pH 7.4) (converted). As to the method:
In vitro release sample was vortexed and centrifuged. An aliquot was taken from the supernatant, diluted with eluent (20 mM phosphate buffer pH 7.4, 150 mM NaCl) and assayed for pramipexole content by SEC as described above.
Release of drug molecule was effected by hydrolysis in buffer at pH 7.4 and 37° C.
9a, 9b, 9c, 9d, 9e, 11b, 20, 21, 22b, 23, 24b, 33, and 35 respectively, were dissolved in buffer (60 mM sodium phosphate, 3 mM EDTA, 0.01% Tween20, pH 7.4), solution was filtered through a 0.2 μm filter and incubated at 37° C. Samples were taken at time intervals and analyzed by RP-HPLC at 263 nm and 280 nm and ESI-MS. UV-signals correlating to linker conjugate molecules were integrated and plotted against incubation time. Curve-fitting software was applied to estimate the corresponding half time of release
16a, 16b, 26, 30, and 31 respectively, were suspended in buffer (60 mM sodium phosphate, 3 mM EDTA, 0.01% Tween20, pH 7.4) and incubated at 37° C. At time intervals samples were vortexed and centrifuged. Aliquots (10-50 μL) were taken from the supernatant solution, and analyzed by measurement of the absorption of released drug at 263 nm. Calculated amounts of released drug were plotted against incubation time. Alternatively, amount of released pramipexole was determined by size exclusion chromatography as described in “Materials and Methods”.
Curve-fitting software was applied to estimate the corresponding half time of release.

For the compound `CCCN[C@H]1CCc2nc(N)sc2C1` [Pramipexole], the elimination half life in data set [1] (healthy subjects) was 8 h. For the same compound, in data set [1] (in vivo), the excretion result is “mainly renal”, the metabolism result is “negligible metabolism”, the protein bound result is on record as “Fifteen” and the volume of distribution is 7 L/kg. Further, the absorption entry in data set [1] (oral administration) is “rapidly and completely absorbed”. Further, in data set [1] (oral, empty stomach), the “time to maximum plasma concentration” value is 1 to 2 h. Moreover, in data set [1] (oral, with food), the “time to maximum plasma concentration” value was 3 to 4 h. Further, the Oral bioavailability result in data set [1] (oral) is on record as “over 90%”.

Turning to `CCCN[C@H]1CCc2nc(NC(=O)CNCC(=O)NCCCCCCSC3CC(=O)N(CCC(=O)NCCOCCOCCOCCOCCOCCOCCC(=O)NCC(N)=O)C3=O)sc2C1` (some centres unmarked) [Compound 9d], in data set [2], the half-life is 1580 min.

Take `CCCN[C@H]1CCc2nc(NC(=O)CCC(=O)NCCCCCCSC3CC(=O)N(CCC(=O)NCCOCCOCCOCCOCCOCCOCCC(=O)NCC(N)=O)C3=O)sc2C1` (some centres unmarked) [Compound 9b]: in data set [2], the half-life was 5330 min.

With `CCCN[C@H]1CCc2nc(NC(=O)CCC(=O)NCCSC3CC(=O)N(CCC(=O)NCCOCCOCCOCCOCCOCCOCCC(=O)NCC(N)=O)C3=O)sc2C1` (some centres unmarked) [Compound 9a], in data set [2], the half-life is 1730 min.

`CCCN[C@H]1CCc2nc(NC(=O)CNC(=O)NCCCCCCSC3CC(=O)N(CCC(=O)NCCOCCOCCOCCOCCOCCOCCC(=O)NCC(N)=O)C3=O)sc2C1` (some centres unmarked) [Compound 9e]: in data set [2], the half-life was 6190 min.

Take `CCCN[C@H]1CCc2nc(NC(=O)COCC(=O)NCCCCCCSC3CC(=O)N(CCC(=O)NCCOCCOCCOCCOCCOCCOCCC(=O)NCC(N)=O)C3=O)sc2C1` (some centres unmarked) [Compound 9c]: in data set [2], the half-life is 1870 min.
